From US20120208776A1 (priority 2002, published 2012)
Values joined by “and” are separate entries in the source; they are usually repeats but may differ in a detail not shown here. Identical values can stand only once.

Test system: MCF7 cells
Assay: Western-blot analysis
Format: cell-based, human
Experimental: Cells were treated for increasing times with approximately the IC50 concentration, or twice the IC50 concentration, of actein. The cells were harvested, washed with PBS, and sonicated in extraction buffer according to the procedure of Han et al. (Han et al., Stable overexpression of cyclin D1 in a human mammary epithelial cell line prolongs the S-phase, and inhibits growth. Oncogene, 10:953-61, 1995). The lysates were subjected to electrophoresis on a 10% or 12.5% SDS-polyacrylamide gel, and then transferred to a polyvinylidene difluoride (PVDF) membrane. The membrane was blocked with milk protein, and incubated with a solution containing the primary antibody against the following: cyclin D1 (Upstate Biotechnology, Lake Placid, N.Y.), p21^cip1 (Oncogene Research Products, Darmstadt, Germany), ppRb (ser 780, Medical and Biological Laboratories, Nagoya, Japan), cdk4 (Upstate Biotechnology, Lake Placid, N.Y.), EGFR (clone-74, Transduction Laboratories, Lexington, Ky.), p-EGFR (phospho (Y1173)-EGFR) (Cell Signaling, Beverly, Mass.), actin (Sigma, St. Louis, Mo.), Her-2/neu (Cell Signaling, Beverly, Mass.), or phospho-(Y1248)-Her-2/neu (Cell Signaling, Beverly, Mass.)), IκB (Sant Cruz Biotechnolgy, Santa Cruz, Calif.), IκκB (Sigma, St. Louis, Mo.) and PPARγ (Santa Cruz biotechnology, Santa Cruz, Calif.) (Masuda et al., Epigallocatechin-3-gallate inhibits activation of HER-2/neu and downstream signaling pathways in human head and neck and breast carcinoma cells. Clin. Cancer Res., 9: 3486-91, 2003). The membrane was washed, and incubated with horseradish peroxidase conjugated secondary antibody.
Protein bands were visualized with the ECL-enhanced chemiluminescence system, according to the manufacturer's directions (Amersham Pharmacia Biotech) (Sgambato et al., Overexpression of p27 (Kip1) inhibits the growth of both normal and transformed human mammary epithelial cells. Cancer Research, 58:3448-54, 1998). The staining intensities of the visualized blots were quantified using NIH image software. For each protein, the relative band intensities were determined by comparing treated samples with untreated controls. These values were then normalized, using β-actin as an internal control.

For `CC(=O)O[C@@H]1C[C@@]23C[C@@]24CC[C@H](O[C@@H]2OC[C@@H](O)[C@H](O)[C@H]2O)C(C)(C)[C@@H]4CC[C@H]3[C@]2(C)C[C@@H]3O[C@]4(C[C@@H](C)[C@@H]3[C@@]12C)O[C@H](O)[C@@]1(C)O[C@@H]41` [actein], the “cellular level of cyclin D1” value (40 μg/ml, 24 h) was “almost a complete loss”, the “level of EGFR” value (20 or 40 μg/ml) was “not significantly affected” and the “p21cip1 band intensity relative to β-actin” value (3 h, 20 μg/ml) was 1.47 fold. The “ppRb band intensity relative to β-actin” value (3 h, 20 μg/ml) was 1.51 fold, the “p21cip1 band intensity relative to β-actin” value (3 h, 40 μg/ml) was 1.17 fold and 1 fold and the “ppRb band intensity relative to β-actin” value (3 h, 40 μg/ml) was 1.59 fold. For the same molecule, the “p21cip1 band intensity relative to β-actin” value (10 h, 20 μg/ml) was 1.75 fold, the “ppRb band intensity relative to β-actin” value (10 h, 20 μg/ml) was 0.61 fold and the “p21cip1 band intensity relative to β-actin” value (10 h, 40 μg/ml) was 1.37 fold. The “ppRb band intensity relative to β-actin” value (10 h, 40 μg/ml) was 0.64 fold, the “p21cip1 band intensity relative to β-actin” value (24 h, 20 μg/ml) was 0.94 fold and the “ppRb band intensity relative to β-actin” value (24 h, 20 μg/ml) was 0.80 fold and 0.8 fold. For the same molecule, the “p21cip1 band intensity relative to β-actin” value (24 h, 40 μg/ml) was 0.78 fold and the “ppRb band intensity relative to β-actin” value (24 h, 40 μg/ml) was 0.43 fold.
